According to patent US20230278972A1, “SUBSTITUTED HALOALKYL SULFONANILIDE HERBICIDES” (FMC Corporation, priority 2020, published 2023):
Like-named read-outs stand apart in the source and are kept apart here.

Key:
Format in all cases: in vivo
[1] = test system: wheat (Triticum aestivum); test: Test A1 preemergence, wheat
How it was run: (§1)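 Seeds were first planted into a blend of loam soil and sand and given a preemergence directed soil spray. In parallel, pots of the same soil were sown for postemergence application once plants reached 2 to 10 cm and the one- to two-leaf stage. Both used surfactant-containing non-phytotoxic solvent formulations.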

[2] = test system: Oat, Wild (wild oat, Avena fatua); test: Test A1 postemergence, Oat, Wild; details: Postemergence
How it was run: as §1

[3] = test system: Foxtail, Giant (giant foxtail, Setaria faberi); test: Test A preemergence, Foxtail, Giant; details: Setaria faberi, pre-emergence, 240 h, Preemergence; for pest or weed control at 125 g/ha: 125 g ai/ha; for pest or weed control at 500 g/ha: 500 g ai/ha
How it was run: (§2)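 Postemergence ratings come from foliar sprays onto one- to two-leaf plants of 2 to 10 cm grown in loam/sand; preemergence ratings come from a directed spray onto the soil of newly seeded pots. Formulation was a surfactant-containing non-phytotoxic solvent blend.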

[4] = test system: wheat (Triticum aestivum); test: Test A postemergence, wheat; details: Triticum aestivum, post-emergence, 240 h, Postemergence, 0 to 100 scale (0 no effect, 100 complete control); for plant injury at 125 g/ha: 125 g ai/ha; for plant injury at 500 g/ha: 500 g ai/ha
How it was run: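 Compounds in non-phytotoxic solvent with surfactant. Soil: loam/sand. Preemergence via directed soil spray after seeding; postemergence on seedlings 2–10 cm, one- to two-leaf.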

corn (Zea mays) = test: Test A postemergence, corn; details: Zea mays, post-emergence, 240 h, Postemergence, 0 to 100 scale (0 no effect, 100 complete control); for Corn plant response rating (crop injury, 0 = no effect, 100 = complete kill) at 125 g/ha: 125 g ai/ha; for Corn plant response rating (crop injury, 0 = no effect, 100 = complete kill) at 500 g/ha / plant injury at 500 g/ha: 500 g ai/ha; for plant injury at 500 g/ha: visual injury vs untreated controls after approx. 10 days, read-out: Corn plant response rating
How it was run: as §2

[5] = visual injury on 0 to 100 scale (0 no effect, 100 complete control), approximately 10 days, read-out: Foxtail, Giant plant response rating
[6] = 0 to 100 scale (0 no effect, 100 complete control), read-out: Plant response rating, Foxtail, Giant
[7] = visual injury approx. 10 days, read-out: Plant response rating, Wheat
[8] = visual injury, approx. 10 days, read-out: Plant response rating, Wheat
[9] = visual injury vs untreated controls after approx. 10 days, read-out: Wheat plant response rating
[10] = read-out: Plant response rating, Wheat
[11] = visual injury, 0 to 100 scale (0 no effect, 100 complete control), approx. 10 days, read-out: Plant response rating, Foxtail, Giant

| Compound | pest or weed control at 125 g/ha [3, 5] [%] | pest or weed control at 500 g/ha [3, 6] [%] | plant injury at 125 g/ha [4, 7] [%] | Corn plant response rating (crop injury, 0 = no effect, 100 = complete kill) at 125 g/ha (corn (Zea mays); visual injury approx. 10 days) [%] | plant injury at 500 g/ha [4, 9] [%] | plant injury at 500 g/ha (corn (Zea mays)) [%] | plant injury at 125 g/ha [4, 10] [%] | Corn plant response rating (crop injury, 0 = no effect, 100 = complete kill) at 125 g/ha (corn (Zea mays)) [%] | pest or weed control at 125 g/ha [3, 11] [%] | also measured |
| --- | --- | --- | --- | --- | --- | --- | --- | --- | --- | --- |
| Cc1cc(C)c(N(COC(=O)C(C)(C)C)S(=O)(=O)C(F)(F)F)cc1C1=NOC2CCCCCC12 (single isomer, unassigned) [Compound 294] | – | – | – | – | – | – | – | – | – | Plant response rating, Wheat ([1]; 31 g ai/ha, 0 to 100 scale (0 no effect, 100 complete control)): 0; Plant response rating, Wheat ([1]; 125 g ai/ha, 0 to 100 scale, 0 no effect, 100 complete control): 0; Plant response rating, Oat, Wild ([2]; 31 g ai/ha, 0 to 100 scale (0 no effect, 100 complete control), 10 days): 10; Plant response rating, Oat, Wild ([2]; 125 g ai/ha, 0 to 100 scale): 20 |
| Cc1cc(Cl)c(NS(=O)(=O)C(F)(F)F)cc1C(=O)N1CCOCC1 [Compound 16, N-[2-Chloro-4-methyl-5-(4-morpholinylcarbonyl)phenyl]-1,1,1-trifluoromethanesulfonamide] | 30 | 100 | 50 | 0 | – | – | – | – | – | plant injury at 500 g/ha [4, 8]: 70%; Corn plant response rating (crop injury, 0 = no effect, 100 = complete kill) at 500 g/ha (corn (Zea mays); visual injury, approx. 10 days): 50% |
| Cc1cc(Cl)c(NS(=O)(=O)C(F)(F)F)cc1C(=O)N1CCCCC1 [Compound 18, N-[2-Chloro-4-methyl-5-(1-piperidinylcarbonyl)phenyl]-1,1,1-trifluoromethanesulfonamide] | 100 | 100 | 0 | 0 | – | – | – | – | – | plant injury at 500 g/ha [4, 8]: 70%; Corn plant response rating (crop injury, 0 = no effect, 100 = complete kill) at 500 g/ha (corn (Zea mays); visual injury, approx. 10 days): 0% |
| CCc1cc(-c2cc(NS(=O)(=O)C(F)(F)F)c(C)cc2C)c(=O)n(C)n1 [Compound 34, N-[5-(6-Ethyl-2,3-dihydro-2-methyl-3-oxo-4-pyridazinyl)-2,4-dimethylphenyl]-1,1,1-trifluoromethanesulfonamide] | 0 | 30 | 0 | 0 | – | – | – | – | – | plant injury at 500 g/ha [4, 8]: 0%; Corn plant response rating (crop injury, 0 = no effect, 100 = complete kill) at 500 g/ha (corn (Zea mays); visual injury, approx. 10 days): 0% |
| Cc1cc(C)c(N(COC(=O)C(C)(C)C)S(=O)(=O)C(F)(F)F)cc1C1=NO[C@@H]2CCC[C@H]12 [Compound 100, [[2,4-Dimethyl-5-[(3aR,6aR)-3a,5,6,6a-tetrahydro-4H-cyclopent[d]isoxazol-3-yl]phenyl][(trifluoromethyl)sulfonyl]amino]methyl 2,2-dimethylpropanoate] | 40 | 90 | 20 | 10 | 50 | 30 | – | – | – | – |
| Cc1cc(C)c(C2=NO[C@@H]3CCC[C@H]23)cc1NS(=O)(=O)C(F)(F)F [Compound 103, N-[2,4-Dimethyl-5-[(3aR,6aR)-3a,5,6,6a-tetrahydro-4H-cyclopent[d]isoxazol-3-yl]phenyl]-1,1,1-trifluoromethanesulfonamide] | 90 | 100 | 60 | 20 | 80 | 70 | – | – | – | – |
| Cc1cc(C)c(C2=NOC3CCOCC23)cc1NS(=O)(=O)C(F)(F)F (stereo not shown) [Compound 120, N-[2,4-Dimethyl-5-(3a,6,7,7a-tetrahydro-4H-pyrano[3,4-d]isoxazol-3-yl)phenyl]-1,1,1-trifluoromethanesulfonamide] | 100 | 100 | 70 | 0 | 70 | 70 | – | – | – | – |
| Cc1cc(C)c(C2=NOC3COCCC23)cc1NS(=O)(=O)C(F)(F)F (stereo not shown) [Compound 121, N-[2,4-Dimethyl-5-(3a,4,7,7a-tetrahydro-5H-pyrano[4,3-d]isoxazol-3-yl)phenyl]-1,1,1-trifluoromethanesulfonamide] | 100 | 100 | 60 | 50 | 70 | 80 | – | – | – | – |
| Cc1c(NS(=O)(=O)C(F)(F)F)cc(C(=O)N(C)C)c(C)c1F [Compound 128, 3-Fluoro-N,N,2,4-tetramethyl-5-[[(trifluoromethyl)sulfonyl]amino]benzamide] | 50 | 100 | 30 | 10 | 60 | 60 | – | – | – | – |
| Cc1cc(C)c(N(COC(=O)C(C)(C)C)S(=O)(=O)C(F)(F)F)cc1C1=NOC2(CCCC2)C1 [Compound 140, [[2,4-Dimethyl-5-(1-oxa-2-azaspiro[4.4]non-2-en-3-yl)phenyl][(trifluoromethyl)sulfonyl]amino]methyl 2,2-dimethylpropanoate] | 20 | 90 | – | 0 | 60 | 30 | 0 | – | – | – |
| Cc1cc(C)c(N(COC(=O)C(C)(C)C)S(=O)(=O)C(F)(F)F)cc1C1=NOC2(CCCCC2)C1 [Compound 159, [[2,4-Dimethyl-5-(1-oxa-2-azaspiro[4.5]dec-2-en-3-yl)phenyl][(trifluoromethyl)sulfonyl]amino]methyl 2,2-dimethylpropanoate] | 30 | 70 | – | – | 50 | 30 | 30 | 0 | – | – |
| Cc1c(NS(=O)(=O)C(F)(F)F)cc(C(=O)N2CCOCC2)c(C)c1F [Compound 190, 1,1,1-Trifluoro-N-[3-fluoro-2,4-dimethyl-5-(4-morpholinylcarbonyl)phenyl]methanesulfonamide] | – | 100 | – | – | 70 | 30 | 40 | 0 | 90 | – |
| Cc1cc(C)c(C2=NOC3(CCCCC3)C2)cc1NS(=O)(=O)C(F)(F)F [Compound 197, N-[2,4-Dimethyl-5-(1-oxa-2-azaspiro[4.5]dec-2-en-3-yl)phenyl]-1,1,1-trifluoromethanesulfonamide] | – | 100 | – | – | 70 | 80 | 60 | 20 | 100 | – |
| Cc1cc(C)c(C2=NOC3(CCCC3)C2)cc1NS(=O)(=O)C(F)(F)F [Compound 207, N-[2,4-Dimethyl-5-(1-oxa-2-azaspiro[4.4]non-2-en-3-yl)phenyl]-1,1,1-trifluoromethanesulfonamide] | – | 100 | – | – | 70 | 70 | 60 | 20 | 90 | – |
| Cc1cc(Cl)c(NS(=O)(=O)C(F)(F)F)cc1C(=O)N1CCC(F)(F)CC1 [Compound 229, N-[2-Chloro-5-[(4,4-difluoro-1-piperidinyl)carbonyl]-4-methylphenyl]-1,1,1-trifluoromethanesulfonamide] | – | – | – | – | 70 | 70 | 60 | 20 | 60 | pest or weed control at 500 g/ha [3, 5]: 100% |
| Cc1cc(C)c(C(=O)N2CCC(F)(F)CC2)cc1NS(=O)(=O)C(F)(F)F [Compound 241, N-[5-[(4,4-Difluoro-1-piperidinyl)carbonyl]-2,4-dimethylphenyl]-1,1,1-trifluoromethanesulfonamide] | – | – | – | – | – | – | 30 | 10 | 80 | pest or weed control at 500 g/ha [3, 5]: 100%; plant injury at 500 g/ha [4, 7]: 70%; Corn plant response rating (crop injury, 0 = no effect, 100 = complete kill) at 500 g/ha (corn (Zea mays); visual injury approx. 10 days): 20% |
